Tested on: mRNA expression in cardiovascular tissues
Conditions: cynomolgus monkey, in vivo, 2 weeks

Cc1ccc(-c2cc(C(F)(F)F)nn2-c2ccc(S(N)(=O)=O)cc2)cc1 [Celebrex]
3.8 fold: IL2RG (204116_at) avg fold change vs control
1.9 fold: HLA-DQB2 (212998_x_at) avg fold change vs control | LCP2 (205270_s_at) avg fold change vs control | VCAM1 (203868_s_at) avg fold change vs control
0.9 fold: ECM1 (209365_s_at) avg fold change vs control | F13A1 (203305_at) avg fold change vs control | HFE (211863_x_at) avg fold change vs control | HFE (211866_x_at) avg fold change vs control | IGF1 (209541_at) avg fold change vs control | JAK1 (214377_s_at) avg fold change vs control | SOCS3 (206360_s_at) avg fold change vs control | STAT1 (AFFX-HUMISGF3A/M97935_5_at) avg fold change vs control
0.7 fold: HFE (211329_x_at) avg fold change vs control | PCOLCE (202465_at) avg fold change vs control
2.0 fold: HLA-DQB1 (209823_x_at) avg fold change vs control | HLA-DQB1 (211654_x_at) avg fold change vs control | XCL1 (206366_x_at) avg fold change vs control
1.4 fold: G1P2 (205483_s_at) avg fold change vs control | HCK (208018_s_at) avg fold change vs control | HHL (203020_at) avg fold change vs control | HLA-DMB (203932_at) avg fold change vs control | HLA-DRB6 (217362_x_at) avg fold change vs control | LILRB1 (211100_x_at) avg fold change vs control | LY96 (206584_at) avg fold change vs control | TNFSF6 (210865_at) avg fold change vs control
2.5 fold: PTPN22 (206060_s_at) avg fold change vs control | PTPRC (207238_s_at) avg fold change vs control
1.6 fold: ICSBP1 (204057_at) avg fold change vs control | INDO (210029_at) avg fold change vs control | INPP5D (203332_s_at) avg fold change vs control | TRGC2 (216920_s_at) avg fold change vs control
2.1 fold: HLA-DQA1 (212671_s_at) avg fold change vs control
1.1 fold: CYP11B1 (214630_at) avg fold change vs control | F2RL1 (206429_at) avg fold change vs control | FCGR1A (214511_x_at) avg fold change vs control | HFE (210864_x_at) avg fold change vs control | HLA-A (211528_x_at) avg fold change vs control | HLA-B (208729_x_at) avg fold change vs control | HLA-B (209140_x_at) avg fold change vs control | HLA-E (200905_x_at) avg fold change vs control | ICAM1 (215485_s_at) avg fold change vs control | IFIT2 (217502_at) avg fold change vs control | IFITM3 (212203_x_at) avg fold change vs control | IL27RA (205926_at) avg fold change vs control | ITGB2 (202803_s_at) avg fold change vs control | KLKB1 (206541_at) avg fold change vs control | LILRB3 (208594_x_at) avg fold change vs control | PLSCR1 (202446_s_at) avg fold change vs control | PRC1 (218009_s_at) avg fold change vs control | TAPBP (208829_at) avg fold change vs control
3.5 fold: XCL1 (214567_s_at) avg fold change vs control
1.2 fold: HLA-A (211529_x_at) avg fold change vs control | HLA-A (215313_x_at) avg fold change vs control | HLA-B (211911_x_at) avg fold change vs control | HLA-C (208812_x_at) avg fold change vs control | HLA-C (216526_x_at) avg fold change vs control | HLA-E (217456_x_at) avg fold change vs control | HLA-F (204806_x_at) avg fold change vs control | PRG1 (201859_at) avg fold change vs control | STAT1 (AFFX-HUMISGF3A/M97935_MB_at) avg fold change vs control | TRGC2 (211144_x_at) avg fold change vs control
0.6 fold: IGFBP4 (201508_at) avg fold change vs control
1.5 fold: HLA-A (211530_x_at) avg fold change vs control | HLA-DRA (210982_s_at) avg fold change vs control | HLA-DRB3 (209312_x_at) avg fold change vs control | LY86 (205859_at) avg fold change vs control | LYN (210754_s_at) avg fold change vs control | TNFAIP3 (202643_s_at) avg fold change vs control | XLKD1 (219059_s_at) avg fold change vs control
1.7 fold: TNFAIP3 (202644_s_at) avg fold change vs control
2.7 fold: STAT1 (209969_s_at) avg fold change vs control
3.3 fold: IFI27 (202411_at) avg fold change vs control
0.8 fold: HFE (211332_x_at) avg fold change vs control | ICAM1 (202638_s_at) avg fold change vs control | IFIT1 (203153_at) avg fold change vs control | IFIT4 (204747_at) avg fold change vs control | TLR2 (204924_at) avg fold change vs control
0.4 fold: IL1A (208200_at) avg fold change vs control
1.0 fold: CYP1B1 (202436_s_at) avg fold change vs control | HCA127 (220040_x_at) avg fold change vs control | HLA-F (221875_x_at) avg fold change vs control | IFITM2 (201315_x_at) avg fold change vs control | LILRB1 (207857_at) avg fold change vs control | PLCL2 (216217_at) avg fold change vs control | PRG1 (201858_s_at) avg fold change vs control | TCTEL1 (201999_s_at) avg fold change vs control
1.3 fold: CYP3A5 (214234_s_at) avg fold change vs control | HLA-C (214459_x_at) avg fold change vs control | HLA-DRA (208894_at) avg fold change vs control | IFI30 (201422_at) avg fold change vs control | IFI44 (214453_s_at) avg fold change vs control | LILRB3 (210225_x_at) avg fold change vs control | MAF (209348_s_at) avg fold change vs control | STAT1 (AFFX-HUMISGF3A/M97935_MA_at) avg fold change vs control | TLR1 (210176_at) avg fold change vs control | cig5 (213797_at) avg fold change vs control
3.2 fold: LCK (204890_s_at) avg fold change vs control
